# Experimental data reported in publication PMC6753678, “Fueling Open Innovation for Malaria Transmission-Blocking Drugs: Hundreds of Molecules Targeting Early Parasite Mosquito Stages” (Frontiers in Microbiology, 2019).
# Where two headings read alike, the source gives them in different places.
# Legend:
# HepG2 cells = assay: HepG2 cytotoxicity assay; details: for Pb ODA (this manuscript) HepG2 cytoxicity: HepG2 cytotoxicity listed with the Pb ODA data set (this manuscript); for IC50: read-out: HepG2 cytotoxicity assay IC50, dose response confirmation; for Unified cytotox: unified HepG2 value across the three screens
# Summary of the method: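 Here viability after a 48 h compound incubation (37°C, humidified 5% CO2) is measured by fluorescence and expressed as percent inhibition, with doxorubicin at 50 μM and DMSO as the bounding controls.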
# [1] = tested on: 3D7-strain P. falciparum asexual parasites; assay: P. falciparum asexual growth inhibition assay (Pf GIA); assay type: cell-based, Plasmodium falciparum; details: dose response confirmation; read-out: Pf asexual growth inhibition assays IC50
# Summary of the method: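 3D7 parasites at 0.25% parasitemia, 2% hematocrit were exposed to compounds in dose response for 72 h at 37°C under 5% CO2, 5% O2. Viability read as parasite LDH activity (nitro blue tetrazolium, A650) after freeze-thaw; inhibition scaled to chloroquine (50 μM) and DMSO controls, mean of three biological replicates.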
# [2] = tested on: P. berghei ookinete development; details: for % inhibition, Replicate A / % inhibition, Replicate B: primary screen at 1 μM
# [3] = read-out: Pb ODA (this manuscript) IC50, P. berghei ookinete development assay, this manuscript
# [4] = read-out: Pb Ookinete development assay IC50, dose response confirmation
# [5] = read-out: Pb ODA IC50, this manuscript
compound,measurement,setting,value
CN1CCN(c2ccc(Nc3ncc(C#N)c(Nc4ccccc4C(N)=O)n3)cc2)CC1.Cl [TCMDC-134116],Pb ODA (this manuscript) HepG2 cytoxicity,HepG2 cells,2.43 µM
same,IC50,HepG2 cells,2430 nM
same,IC50,[1],28 nM
same,Is compound selective in assay? Pb ODA active?,[2],1 (key: 1: YES; 0: NO)
same,"% inhibition, Replicate A",[2],134.36%
same,"% inhibition, Replicate B",[2],120.59%
same,IC50,[2]; [3],31.6 nM
same,IC50,[2]; [4],32 nM
COc1ccc(Nc2ncc(C#N)c(Nc3ccccc3C(N)=O)n2)cc1N1CCN(C)CC1.Cl [TCMDC-134117],Pb ODA (this manuscript) HepG2 cytoxicity,HepG2 cells,8.32 µM
same,IC50,HepG2 cells,8320 nM
same,IC50,[1],63 nM
same,Is compound selective in assay? Pb ODA active?,[2],1 (key: 1: YES; 0: NO)
same,"% inhibition, Replicate A",[2],92.85%
same,"% inhibition, Replicate B",[2],98.42%
same,IC50,[2]; [3],25.5 nM
same,IC50,[2]; [4],26 nM
CNC(=O)c1ccccc1Nc1nc(Nc2ccc(N3CCOCC3)cc2)ncc1Cl.Cl [TCMDC-134144],Pb ODA (this manuscript) HepG2 cytoxicity,HepG2 cells,3.63 µM
same,IC50,HepG2 cells,3630 nM
same,IC50,[1],1990 nM
same,Is compound selective in assay? Pb ODA active?,[2],0 (key: 1: YES; 0: NO)
same,"% inhibition, Replicate A",[2],67.63%
same,"% inhibition, Replicate B",[2],105.55%
same,IC50,[2]; [3],390 nM
same,IC50,[2]; [4],387 nM
COc1ccc(Nc2ncc(OC)c(Nc3ccccc3C(N)=O)n2)cc1N1CCN(C)CC1.O=CO [TCMDC-134149],Pb ODA (this manuscript) HepG2 cytoxicity,HepG2 cells,13.49 µM
same,IC50,HepG2 cells,13500 nM
same,IC50,[1],846 nM
same,Is compound selective in assay? Pb ODA active?,[2],1 (key: 1: YES; 0: NO)
same,"% inhibition, Replicate A",[2],85.24%
same,"% inhibition, Replicate B",[2],71.46%
same,IC50,[2]; [4],270 nM
NCC(NC(=O)c1ccc(-c2c[nH]c3ncccc23)s1)c1ccccc1.O=CO (stereo not shown) [TCMDC-134154],IC50,HepG2 cells,16200 nM
same,Unified cytotox,HepG2 cells,16.22 µM
same,IC50,[1],558 nM
same,Is compound selective in assay? Pb ODA active?,"[2]; 1: YES, 0: NO",1 (1: YES)
same,"% inhibition, Replicate A",[2],101.79%
same,"% inhibition, Replicate B",[2],81.42%
same,IC50,[2]; [5],960 nM
same,IC50,[2]; [4],964 nM
COc1ccc(Nc2ncc(Cl)c(Nc3cccnc3C(N)=O)n2)cc1N1CCN(C)CC1.Cl [TCMDC-134163],Pb ODA (this manuscript) HepG2 cytoxicity,HepG2 cells,11.22 µM
same,IC50,HepG2 cells,11200 nM
same,IC50,[1],169 nM
same,Is compound selective in assay? Pb ODA active?,[2],1 (key: 1: YES; 0: NO)
same,"% inhibition, Replicate A",[2],91.07%
same,"% inhibition, Replicate B",[2],92.91%
same,IC50,[2]; [4],380 nM
CN1CCN(c2ccc(Nc3ncc(Cl)c(Nc4cccnc4C(N)=O)n3)cc2)CC1.Cl [TCMDC-134164],Pb ODA (this manuscript) HepG2 cytoxicity,HepG2 cells,4.62 µM
same,IC50,HepG2 cells,4620 nM
same,IC50,[1],84 nM
same,Is compound selective in assay? Pb ODA active?,[2],1 (key: 1: YES; 0: NO)
same,"% inhibition, Replicate A",[2],96.98%
same,"% inhibition, Replicate B",[2],90.60%
same,IC50,[2]; [3],230 nM
same,IC50,[2]; [4],226 nM
CS(=O)(=O)Cc1ccc(Nc2ncc(Cl)c(Nc3cccnc3C(N)=O)n2)cc1.Cl [TCMDC-134165],Pb ODA (this manuscript) HepG2 cytoxicity,HepG2 cells,100.00 µM
same,IC50,HepG2 cells,100000 nM
same,IC50,[1],969 nM
same,Is compound selective in assay? Pb ODA active?,[2],1 (key: 1: YES; 0: NO)
same,"% inhibition, Replicate A",[2],41.15%
same,"% inhibition, Replicate B",[2],108.98%
same,IC50,[2]; [3],700 nM
same,IC50,[2]; [4],699 nM
CS(=O)(=O)Cc1cccc(Nc2ncc(Cl)c(Nc3cccnc3C(N)=O)n2)c1.Cl [TCMDC-134166],Pb ODA (this manuscript) HepG2 cytoxicity,HepG2 cells,4.79 µM
same,IC50,HepG2 cells,4790 nM
same,IC50,[1],273 nM
same,Is compound selective in assay? Pb ODA active?,[2],0 (key: 1: YES; 0: NO)
same,"% inhibition, Replicate A",[2],102.49%
same,"% inhibition, Replicate B",[2],90.53%
same,IC50,[2]; [3],1210 nM
same,IC50,[2]; [4],1200 nM
NC(=O)c1ccccc1Nc1nc(Nc2cc[nH]n2)ncc1Cl [TCMDC-134169],Pb ODA (this manuscript) HepG2 cytoxicity,HepG2 cells,13.18 µM
same,IC50,HepG2 cells,13200 nM
same,IC50,[1],2310 nM
same,Is compound selective in assay? Pb ODA active?,[2],1 (key: 1: YES; 0: NO)
same,"% inhibition, Replicate A",[2],78.38%
same,"% inhibition, Replicate B",[2],61.96%
same,IC50,[2]; [3],510 nM
same,IC50,[2]; [4],513 nM
COc1cc(NC2=NS(=O)(=O)c3cc(Cl)ccc3N2C)cc(OC)c1OC.O=C(O)C(F)(F)F [TCMDC-134208],IC50,HepG2 cells,100000 nM
same,Unified cytotox,HepG2 cells,100.00 µM
same,IC50,[1],146 nM
same,Is compound selective in assay? Pb ODA active?,"[2]; 1: YES, 0: NO",1 (1: YES)
same,"% inhibition, Replicate A",[2],117.05%
same,"% inhibition, Replicate B",[2],98.94%
same,IC50,[2]; [5],1350 nM
same,IC50,[2]; [4],1350 nM
CC(C#N)Cc1ccc(-c2cnc(N)c3cc(-c4ccnc(N)n4)ccc23)cc1 (stereo not shown) [TCMDC-134547],IC50,HepG2 cells,5750 nM
same,Unified cytotox,HepG2 cells,5.75 µM
same,IC50,[1],1370 nM
same,Is compound selective in assay? Pb ODA active?,"[2]; 1: YES, 0: NO",0 (0: NO)
same,"% inhibition, Replicate A",[2],69.67%
same,"% inhibition, Replicate B",[2],52.16%
same,IC50,[2]; [5],850 nM
same,IC50,[2]; [4],849 nM
